The assay deals with pro-protein convertase of the subtype nine binding to recombinant LDLR-AB domain (Homo sapiens, UniProt Q8NBP7). The assay is described as follows: in vitro quantitative solid phase binding assay (ELISA) of the subtype nine pro-protein convertase to immobilized LDLR. The settings on record: for inhibition at 5 µM: Concentration 5 μM. As for the experimental part: The in vitro binding assay described hereinafter is a quantitative solid phase binding assay for determining the efficacy of the compounds. Plates were pre-coated with a recombinant LDLR-AB domain, which binds to the gene pro-protein convertase of the subtype nine. Test compound at different concentrations was added to the subtype gene and added to LDLR immobilized on the wells. The amount of bound gene is measured by binding it with biotinylated anti-His-tag monoclonal antibody, followed by binding with horseradish peroxidase conjugated streptavidin substrate. The color was quantified by ELISA reader at […] which reflects the relative amount of “the gene” that binds to LDLR in presence and absence of the inhibitor. EC50 values were calculated by nonlinear regression analysis using graph pad prism software. Each concentration point represents values in duplicates.
pro-protein convertase of the subtype nine binding to recombinant LDLR-AB domain, sequence (Q8NBP7 153-692): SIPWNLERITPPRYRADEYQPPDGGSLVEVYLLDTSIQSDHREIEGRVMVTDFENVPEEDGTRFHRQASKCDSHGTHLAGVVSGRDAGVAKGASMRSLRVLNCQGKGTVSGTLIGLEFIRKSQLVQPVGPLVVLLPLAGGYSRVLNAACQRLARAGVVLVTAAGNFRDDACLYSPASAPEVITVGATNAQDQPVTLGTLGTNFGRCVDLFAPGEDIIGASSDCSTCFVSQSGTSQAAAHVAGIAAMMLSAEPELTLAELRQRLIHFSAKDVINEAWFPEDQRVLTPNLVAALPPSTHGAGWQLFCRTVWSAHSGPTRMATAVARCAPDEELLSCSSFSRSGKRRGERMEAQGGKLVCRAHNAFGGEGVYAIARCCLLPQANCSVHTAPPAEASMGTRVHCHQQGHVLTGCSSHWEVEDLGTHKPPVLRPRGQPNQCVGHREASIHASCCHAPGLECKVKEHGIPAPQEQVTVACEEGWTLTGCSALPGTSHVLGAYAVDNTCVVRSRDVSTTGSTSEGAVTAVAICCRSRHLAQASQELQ
pro-protein convertase of the subtype nine binding to recombinant LDLR-AB domain, sequence (Q8NBP7 31-152 partner limits assumed): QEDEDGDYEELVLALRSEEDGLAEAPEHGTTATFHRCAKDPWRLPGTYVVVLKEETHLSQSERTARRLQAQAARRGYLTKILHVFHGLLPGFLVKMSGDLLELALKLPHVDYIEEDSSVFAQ
Background: An ELISA detects its analyte on a solid surface through an enzyme-linked reagent.

Usually inhibition stands for the share of the control response that was lost under treatment. For orientation: % Inhibition means how much of the control response was suppressed.

In the case of `CCC(=NOCc1ccc(F)cc1)c1ccc(OCC(=O)NCC2CCOCC2)nc1` [Example 27, 2-((5-(1-(((4-fluorobenzyl)oxy)imino)propyl)pyridin-2-yl)oxy)-N-((tetrahydro-2H-pyran-4-yl)methyl)acetamide], the inhibition at 1 µM (Concentration 1 μM) was 10%. The inhibition at 10 µM (Concentration 10 μM) was 15%. For the same compound, where the note is “Concentration 100 μM”, the inhibition at 100 µM was 29%.
For `O=C(COc1ccc(C(Cc2ccccc2)=NOCc2ccc(F)cc2)cc1)NCC1CCOCC1` [Example 35, 2-(4-(1-(((4-fluorobenzyl)oxy)imino)-2-phenylethyl)phenoxy)-N-((tetrahydro-2H-pyran-4-yl)methyl)acetamide] the same measures were 22%, 13% and 25%.
`O=C(COc1ccc(C(Cc2ccccc2)=NOCc2ccc(OC(F)(F)F)cc2)cc1)NCC1CCOCC1` [Example 39, 2-(4-(2-phenyl-1-(((4-(trifluoromethoxy)benzyl)oxy)imino)ethyl)phenoxy)-N-((tetrahydro-2H-pyran-4-yl)methyl)acetamide]: the inhibition at 10 µM (Concentration 10 μM) is 33%. Besides, the inhibition at 100 µM (Concentration 100 μM) amounted to 42%.
As for `CC(=NOCc1ccc(C#N)cc1)c1ccc(OCC(=O)NCC2CCOCC2)nc1` [Example 21, 2-((5-(1-(((4-cyanobenzyl)oxy)imino)ethyl)pyridin-2-yl)oxy)-N-((tetrahydro-2H-pyran-4-yl)methyl)acetamide], the inhibition at 100 µM (Concentration 100 μM) stood at 15%.
Regarding `O=C(COc1ccc(C(Cc2ccccc2)=NOCc2ccccn2)cc1)NCC1CCOCC1` [Example 43, 2-(4-(2-phenyl-1-((pyridin-2-ylmethoxy)imino)ethyl)phenoxy)-N-((tetrahydro-2H-pyran-4-yl)methyl)acetamide], the inhibition at 10 µM (Concentration 10 μM) amounted to 15%. Besides, the inhibition at 100 µM (Concentration 100 μM) was determined as 27%.
Consider `O=C(COc1ccc(C(Cc2ccncc2)=NOCc2ccc(C(F)(F)F)cc2)cc1)NCC1CCOCC1` [Example 13, 2-(4-(2-(pyridin-4-yl)-1-(((4-(trifluoromethyl)benzyl)oxy)imino)ethyl)phenoxy)-N-((tetrahydro-2H-pyran-4-yl)methyl)acetamide], for which the inhibition at 1 µM (Concentration 1 μM) was 22%. Further, the inhibition at 10 µM (Concentration 10 μM) was determined as 32%. Further, the inhibition at 100 µM (Concentration 100 μM) is 48%.
For the compound `CC(=NOCc1ccc(C(F)(F)F)cc1)c1ccc(NCC(=O)NCC2CCOCC2)cc1` [Example 20, N-((tetrahydro-2H-pyran-4-yl)methyl)-2-((4-(1-(((4-(trifluoromethyl)benzyl)oxy)imino)ethyl)phenyl)amino)acetamide], the inhibition at 1 µM (Concentration 1 μM) came to 20%. For the same compound, the inhibition at 10 µM (Concentration 10 μM) was found to be 34%. Besides, the inhibition at 100 µM (Concentration 100 μM) came out at 57%.
As for `CCC(=NOCc1ccc(C(F)(F)F)cc1)c1ccc(NCC(=O)NCC2CCOCC2)cc1` [Example 5, N-((tetrahydro-2H-pyran-4-yl)methyl)-2-((4-(1-(((4-(trifluoromethyl)benzyl)oxy)imino)propyl)phenyl)amino)acetamide], the inhibition at 1 µM (Concentration 1 μM) was found to be 34%. For the same compound, the inhibition at 10 µM (Concentration 10 μM) came out at 40%. In addition, the inhibition at 100 µM (Concentration 100 μM) is 50%.
In the case of `O=C(COc1ccc(C=NOCc2ccc(C(F)(F)F)cc2)cn1)NCC1CCOCC1` [Example 19, N-((tetrahydro-2H-pyran-4-yl)methyl)-2-((5-((((4-(trifluoromethyl)benzyl)oxy)imino)methyl)pyridin-2-yl)oxy)acetamide], the inhibition at 10 µM (Concentration 10 μM) came out at 40%. Besides, the inhibition at 100 µM (Concentration 100 μM) came to 46%.
For the compound `Cc1ccc(CON=C(Cc2ccccc2)c2ccc(OCC(=O)NCC3CCOCC3)c(C)c2)cc1` [Example 32, 2-(2-methyl-4-(1-(((4-methylbenzyl)oxy)imino)-2-phenylethyl)phenoxy)-N-((tetrahydro-2H-pyran-4-yl)methyl)acetamide], where the note is “Concentration 1 μM”, the inhibition at 1 µM was 14%. For the setting “Concentration 10 μM”, the inhibition at 10 µM stood at 35%. Also, under “Concentration 100 μM”, the inhibition at 100 µM came to 48%.
Taken in the same sequence, the figures for `CCC(=NOCc1ccc(C)cc1)c1ccc(OCC(=O)NCC2CCOCC2)nc1` [Example 25, 2-((5-(1-(((4-methylbenzyl)oxy)imino)propyl)pyridin-2-yl)oxy)-N-((tetrahydro-2H-pyran-4-yl)methyl)acetamide] were 28%, 34% and 50%.
Consider `O=C(COc1ccc(C(CN2CCOCC2)=NOCc2ccc(C(F)(F)F)cc2)cc1)NCC1CCOCC1` [Example 14, 2-(4-(2-morpholino-1-(((4-(trifluoromethyl)benzyl)oxy)imino)ethyl)phenoxy)-N-((tetrahydro-2H-pyran-4-yl)methyl)acetamide], for which the inhibition at 1 µM (Concentration 1 μM) stood at 15%. Moreover, the inhibition at 10 µM (Concentration 10 μM) was 31%. The inhibition at 100 µM (Concentration 100 μM) was 41%.
For `O=C(COc1ccc2c(c1)CCCC2=NOCc1ccc(C(F)(F)F)cc1)NCC1CCOCC1` [Example 48, N-((tetrahydro-2H-pyran-4-yl)methyl)-2-((5-(((4-(trifluoromethyl)benzyl)oxy)imino)-5,6,7,8-tetrahydronaphthalen-2-yl)oxy)acetamide], the inhibition at 1 µM (Concentration 1 μM) came out at 17%. In addition, the inhibition at 10 µM (Concentration 10 μM) was determined as 42%. Also, the inhibition at 100 µM (Concentration 100 μM) was 64%.
`CCC(=NOCc1ccc(OC)cc1)c1ccc(OCC(=O)NCC2CCOCC2)nc1` [Example 26, 2-((5-(1-(((4-methoxybenzyl)oxy)imino)propyl)pyridin-2-yl)oxy)-N-((tetrahydro-2H-pyran-4-yl)methyl)acetamide]: the inhibition at 1 µM (Concentration 1 μM) was 45%. For the same compound, under “Concentration 10 μM”, the inhibition at 10 µM is 45%. The inhibition at 100 µM (Concentration 100 μM) was found to be 52%.
As for `Cc1cc(C(Cc2ccccc2)=NOCc2ccc(Cl)cc2)ccc1OCC(=O)NCC1CCOCC1` [Example 36], the “% Inhibition” value by setting is: (Concentration 1 μM) 6%; (Concentration 10 μM) 9%; (Concentration 100 μM) 36%.
As to `CCC(=NOCc1ccc(C(F)(F)F)cc1)c1ccc(NCC(=O)NCC2CCOCC2)nc1` [Example 23, N-((tetrahydro-2H-pyran-4-yl)methyl)-2-((5-(1-(((4-(trifluoromethyl)benzyl)oxy)imino)propyl)pyridin-2-yl)amino)acetamide], under “Concentration 1 μM”, the inhibition at 1 µM came to 30%. Moreover, the inhibition at 10 µM (Concentration 10 μM) was 42%. Moreover, for the setting “Concentration 100 μM”, the inhibition at 100 µM is 47%.
For `O=C(COc1ccc(C=NOCc2ccc(C(F)(F)F)cc2)cc1)NCC1CCOCC1` [Example 17, N-((tetrahydro-2H-pyran-4-yl)methyl)-2-(4-((((4-(trifluoromethyl)benzyl)oxy)imino)methyl)phenoxy)acetamide] the same measures were 13%, 19% and 44%.
On to `COCC(=NOCc1ccc(C(F)(F)F)cc1)c1ccc(OCC(=O)NCC2CCOCC2)cc1` [Example 30, 2-(4-(2-methoxy-1-(((4-(trifluoromethyl)benzyl)oxy)imino)ethyl)phenoxy)-N-((tetrahydro-2H-pyran-4-yl)methyl)acetamide], for which the inhibition at 100 µM (Concentration 100 μM) was 36%.
In the case of `Cc1ccc(CON=C(Cc2ccccc2)c2ccc(OCC(=O)NCC3CCOCC3)cc2)cc1` [Example 33, 2-(4-(1-(((4-methylbenzyl)oxy)imino)-2-phenylethyl)phenoxy)-N-((tetrahydro-2H-pyran-4-yl)methyl)acetamide], the inhibition at 1 µM (Concentration 1 μM) was 10%. Where the note is “Concentration 10 μM”, the inhibition at 10 µM is 10%. Also, the inhibition at 100 µM (Concentration 100 μM) amounted to 28%.
`Cc1cc(C(Cc2ccccc2)=NOCc2ccc(C(F)(F)F)cc2)ccc1OCC(=O)NCC1CCOCC1` [Example 10, 2-(2-methyl-4-(2-phenyl-1-(((4-(trifluoromethyl)benzyl)oxy)imino)ethyl)phenoxy)-N-((tetrahydro-2H-pyran-4-yl)methyl)acetamide]: the inhibition at 5 µM was found to be 18%. Further, the inhibition at 1 µM (Concentration 1 μM) was 3%. For the same compound, for the setting “Concentration 10 μM”, the inhibition at 10 µM is 35%. The inhibition at 100 µM (Concentration 100 μM) was determined as 51%.
`Cc1cc(C(Cc2ccccc2)=NOCc2ccc(OC(F)(F)F)cc2)ccc1OCC(=O)NCC1CCOCC1` [Example 38, 2-(2-methyl-4-(2-phenyl-1-(((4-(trifluoromethoxy)benzyl)oxy)imino)ethyl)phenoxy)-N-((tetrahydro-2H-pyran-4-yl)methyl)acetamide]: the inhibition at 10 µM (Concentration 10 μM) amounted to 19%. Also, the inhibition at 100 µM (Concentration 100 μM) was 38%.
With `CCC(=NOCc1ccccc1)c1ccc(OCC(=O)NCC2CCOCC2)nc1` [Example 24, 2-((5-(1-((benzyloxy)imino)propyl)pyridin-2-yl)oxy)-N-((tetrahydro-2H-pyran-4-yl)methyl)acetamide], the inhibition at 1 µM (Concentration 1 μM) amounted to 24%. In addition, for the setting “Concentration 10 μM”, the inhibition at 10 µM is 28%. For the same compound, the inhibition at 100 µM (Concentration 100 μM) was determined as 52%.
Consider `COc1ccc(CON=C(Cc2ccccc2)c2ccc(OCC(=O)NCC3CCOCC3)c(C)c2)cc1` [Example 40, 2-(4-(1-(((4-methoxybenzyl)oxy)imino)-2-phenylethyl)-2-methylphenoxy)-N-((tetrahydro-2H-pyran-4-yl)methyl)acetamide], for which, where the note is “Concentration 10 μM”, the inhibition at 10 µM stood at 20%. Moreover, for the setting “Concentration 100 μM”, the inhibition at 100 µM was determined as 47%.
On to `O=C(COc1ccc(C(Cc2ccccc2)=NOCc2ccc(C(F)(F)F)cc2)cc1)NCC1CCOCC1` [Example 11, 2-(4-(2-phenyl-1-(((4-(trifluoromethyl)benzyl)oxy)imino)ethyl)phenoxy)-N-((tetrahydro-2H-pyran-4-yl)methyl)acetamide], for which the inhibition at 5 µM was determined as 23%. For the same compound, the inhibition at 1 µM (Concentration 1 μM) worked out at 20%. In addition, the inhibition at 10 µM (Concentration 10 μM) worked out at 49%. For the same compound, for the setting “Concentration 100 μM”, the inhibition at 100 µM was 61%.
For the compound `O=C(COc1ccc(C(CN2CCSCC2)=NOCc2ccc(C(F)(F)F)cc2)cc1)NCC1CCOCC1` [Example 15, N-((tetrahydro-2H-pyran-4-yl)methyl)-2-(4-(2-thiomorpholino-1-(((4-(trifluoromethyl)benzyl)oxy)imino)ethyl)phenoxy)acetamide], where the note is “Concentration 1 μM”, the inhibition at 1 µM was 25%. For the same compound, the inhibition at 10 µM (Concentration 10 μM) stood at 37%. The inhibition at 100 µM (Concentration 100 μM) was found to be 39%.

The record behind these values is patent US8822414B2, “Heterocyclic compounds suitable for the treatment of dyslipidemia” (Cadila Healthcare Limited, priority 2010, dated 2014).
